According to ChEMBL document CHEMBL1201862, “PubChem BioAssay data set” (2004):
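96-well plates; 48 h exposure; 5 concentrations. Endpoints by linear interpolation between flanking doses. Not reached: highest tested concentration assigned. GI50 = concentration required for 50% inhibition of growth.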 The source made the active and inactive calls. Cut-off read from the data, not from the text of the source: active = GI50 up to about 1.1 µM and inactive = higher.

Legend:
Assay in all cases: NCI tumour cell line growth inhibition, 48 h
786-0 = test system: 786-0
A498 = test system: A498
A549 = test system: A549
ACHN = test system: ACHN
CAKI-1 = test system: CAKI-1
CCRF-CEM = test system: CCRF-CEM
COLO 205 = test system: COLO 205
DLD-1 = test system: DLD-1
DMS-114 = test system: DMS-114
DMS-273 = test system: DMS-273
EKVX = test system: EKVX
HCC 2998 = test system: HCC 2998
HCT-116 = test system: HCT-116
HCT-15 = test system: HCT-15
HL-60 = test system: HL-60
HOP-18 = test system: HOP-18
HOP-62 = test system: HOP-62
HOP-92 = test system: HOP-92
HT-29 = test system: HT-29
IGROV-1 = test system: IGROV-1
K562 = test system: K562
KM-20L2 = test system: KM-20L2
KM12 = test system: KM12
LOX IMVI = test system: LOX IMVI
LXFL 529 = test system: LXFL 529
M14 = test system: M14
M19-MEL = test system: M19-MEL
MOLT-4 = test system: MOLT-4
Malme-3M = test system: Malme-3M
NCI-H226 = test system: NCI-H226
NCI-H23 = test system: NCI-H23
NCI-H460 = test system: NCI-H460
NCI-H522 = test system: NCI-H522
OVCAR-3 = test system: OVCAR-3
OVCAR-4 = test system: OVCAR-4
OVCAR-5 = test system: OVCAR-5
OVCAR-8 = test system: OVCAR-8
RPMI-8226 = test system: RPMI-8226
RXF 393 = test system: RXF 393
RXF 631 = test system: RXF 631
SF-268 = test system: SF-268
SF-295 = test system: SF-295
SF-539 = test system: SF-539
SK-MEL-28 = test system: SK-MEL-28
SK-MEL-2 = test system: SK-MEL-2
SK-MEL-5 = test system: SK-MEL-5
SK-OV-3 = test system: SK-OV-3
SN12C = test system: SN12C
SNB-19 = test system: SNB-19
SNB-75 = test system: SNB-75
SNB-78 = test system: SNB-78
SR = test system: SR
SW-620 = test system: SW-620
TK-10 = test system: TK-10
U-251 = test system: U-251
UACC-257 = test system: UACC-257
UACC-62 = test system: UACC-62
UO-31 = test system: UO-31
XF498 = test system: XF498

CC(=O)Nc1ccc(SC#N)c2c(NC(C)=O)cccc12
GI50 (786-0): > 100 µM (inactive) | GI50 (A498): > 100 µM (inactive) | GI50 (A549): > 100 µM (inactive) | GI50 (ACHN): > 100 µM (inactive) | GI50 (CAKI-1): > 65 µM (inactive) | GI50 (CCRF-CEM): 30.3 µM (inactive) | GI50 (COLO 205): > 68.4 µM (inactive) | GI50 (DLD-1): 71.6 µM (inactive) | GI50 (DMS-114): 43.1 µM (inactive) | GI50 (DMS-273): > 100 µM (inactive) | GI50 (EKVX): > 100 µM (inactive) | GI50 (HCC 2998): > 100 µM (inactive) | GI50 (HCT-116): > 86.3 µM (inactive) | GI50 (HCT-15): 53.8 µM | GI50 (HL-60): 24.1 µM (inactive) | GI50 (HOP-18): 45.2 µM (inactive) | GI50 (HOP-62): > 100 µM (inactive) | GI50 (HOP-92): 50.7 µM (inactive) | GI50 (HT-29): > 100 µM (inactive) | GI50 (IGROV-1): > 100 µM (inactive) | GI50 (K562): 34 µM (inactive) | GI50 (KM-20L2): > 100 µM (inactive) | GI50 (KM12): > 66.8 µM (inactive) | GI50 (LOX IMVI): 56.4 µM (inactive) | GI50 (LXFL 529): 28 µM (inactive) | GI50 (M14): > 100 µM (inactive) | GI50 (M19-MEL): > 100 µM (inactive) | GI50 (MOLT-4): 28.7 µM (inactive) | GI50 (Malme-3M): > 100 µM (inactive) | GI50 (NCI-H226): > 100 µM (inactive) | GI50 (NCI-H23): > 100 µM (inactive) | GI50 (NCI-H460): > 100 µM (inactive) | GI50 (NCI-H522): > 47.6 µM (inactive) | GI50 (OVCAR-3): 89.9 µM (inactive) | GI50 (OVCAR-4): > 92.9 µM (inactive) | GI50 (OVCAR-5): > 100 µM (inactive) | GI50 (OVCAR-8): > 100 µM (inactive) | GI50 (RPMI-8226): 24.4 µM (inactive) | GI50 (RXF 393): > 100 µM (inactive) | GI50 (RXF 631): > 82.8 µM (inactive) | GI50 (SF-268): 98.4 µM (inactive) | GI50 (SF-295): > 100 µM (inactive) | GI50 (SF-539): > 100 µM (inactive) | GI50 (SK-MEL-28): 84.3 µM (inactive) | GI50 (SK-MEL-2): > 100 µM (inactive) | GI50 (SK-MEL-5): > 100 µM (inactive) | GI50 (SK-OV-3): > 100 µM (inactive) | GI50 (SN12C): > 100 µM (inactive) | GI50 (SNB-19): > 100 µM (inactive) | GI50 (SNB-75): > 100 µM (inactive) | GI50 (SNB-78): 99.3 µM (inactive) | GI50 (SR): 33.6 µM (inactive) | GI50 (SW-620): 43.1 µM (inactive) | GI50 (TK-10): > 100 µM (inactive) | GI50 (U-251): > 100 µM (inactive) | GI50 (UACC-257): > 100 µM (inactive) | GI50 (UACC-62): 78.3 µM (inactive) | GI50 (UO-31): > 95.5 µM (inactive)

COc1ccccc1OCC(COC(=O)Nc1ccccc1)OC(=O)Nc1ccccc1 (stereo unspecified)
GI50 (A498): 60.3 µM (inactive) | GI50 (A549): 50.6 µM (inactive) | GI50 (ACHN): > 100 µM (inactive) | GI50 (CAKI-1): 20.3 µM (inactive) | GI50 (CCRF-CEM): > 100 µM (inactive) | GI50 (COLO 205): 94.2 µM (inactive) | GI50 (DLD-1): > 100 µM (inactive) | GI50 (DMS-114): 47.1 µM (inactive) | GI50 (DMS-273): 54.6 µM (inactive) | GI50 (EKVX): > 100 µM (inactive) | GI50 (HCC 2998): > 100 µM (inactive) | GI50 (HCT-116): 61.1 µM (inactive) | GI50 (HCT-15): > 100 µM | GI50 (HL-60): 40.6 µM (inactive) | GI50 (HOP-18): 59.3 µM (inactive) | GI50 (HOP-62): 56.6 µM (inactive) | GI50 (HOP-92): 6.25 µM (inactive) | GI50 (HT-29): 59.8 µM (inactive) | GI50 (IGROV-1): > 100 µM (inactive) | GI50 (K562): > 100 µM (inactive) | GI50 (KM-20L2): > 100 µM (inactive) | GI50 (KM12): 68.4 µM (inactive) | GI50 (LOX IMVI): 25.9 µM (inactive) | GI50 (LXFL 529): 27.5 µM (inactive) | GI50 (M14): 91.8 µM (inactive) | GI50 (Malme-3M): 60.8 µM (inactive) | GI50 (NCI-H226): 36.2 µM (inactive) | GI50 (NCI-H23): 73.1 µM (inactive) | GI50 (NCI-H460): 48.5 µM (inactive) | GI50 (NCI-H522): 49.4 µM (inactive) | GI50 (OVCAR-3): > 100 µM (inactive) | GI50 (OVCAR-4): 55.3 µM (inactive) | GI50 (OVCAR-5): > 100 µM (inactive) | GI50 (OVCAR-8): 37.4 µM (inactive) | GI50 (RXF 393): 12.8 µM (inactive) | GI50 (SF-268): 57.5 µM (inactive) | GI50 (SF-295): 39.1 µM (inactive) | GI50 (SF-539): 17.2 µM (inactive) | GI50 (SK-MEL-28): > 100 µM (inactive) | GI50 (SK-MEL-2): 23.1 µM (inactive) | GI50 (SK-MEL-5): 79.3 µM (inactive) | GI50 (SK-OV-3): > 100 µM (inactive) | GI50 (SN12C): 28.5 µM (inactive) | GI50 (SNB-19): 31.5 µM (inactive) | GI50 (SNB-75): 17.1 µM (inactive) | GI50 (SNB-78): 43.3 µM (inactive) | GI50 (SW-620): > 100 µM (inactive) | GI50 (TK-10): > 100 µM (inactive) | GI50 (U-251): 41.4 µM (inactive) | GI50 (UACC-257): > 100 µM (inactive) | GI50 (UACC-62): 32.6 µM (inactive) | GI50 (UO-31): 49.3 µM (inactive) | GI50 (XF498): 60.4 µM (inactive)
